Experimental data reported in patent US5071839A, “Safe pharmaceutical composition for decreasing side effects of antiviral drugs and increasing the immune function (SDI) II” (priority 1987, dated 1991).
Where two headings read alike, the source gives them in different places.

How the values were obtained:
[1] = test system: T lymphocytes; test: Formation of rosette (T lymphocytes with sheep erythrocytes) (Example 9, Table 5); type: cell-based, mice; conditions: C: control, only antiviral drug (80 μg/ml)
Experimental: (§1) Male mice weight 18-20 g were used in the experimetns. The dosage of SDI is 5-10 mg/kg injected intraperitoneally. The normal mice were injected with same volume of normal saline. These injections were repeated daily for 3-5 days. On the last say, both antiviral drug and antiviral drug+SDI group were injected interaperitoneally.
a. Obtain venous blood in heparin (10 IU ml^-1) and perform a total and differential leucocyte count.
b. Isolate lymphocyte fraction. Count vaiable lymphocytes calculate and record total yield. Adjust to 5×10^5 lymphocytes ml^-1.
c. Wash sheep erythrocytes by centrifugation (400 g for 10 minutes at room temperature) and ajust to a 2.5% v/v suspension in PBS.
d. Mix 0.1 ml of the lymphocyte suspension with 0.1 ml of sheep erythrocytes and centrifuge at 225 g for 5 minutes at room temperature.
e. Incubate for 2 hours at 4° C.
f. Add 50 μl of fetal bovine serum (FBS).
g. Resuspend cell mixture by gently tapping the tube and pipette a sample into a haemocytomer.
h. Count 200 lymphocytes and determine the percentage of cell with 3 or more erythrocytes attached. (Three are T lymphocytes).
i. Calculate the absolute number of T lymphocytes ml^-1 of original blood.

[2] = test system: YAC-1 or EAC cells; test: Natural killer cell cytotoxicity, 51Cr release from YAC-1 or EAC cells (Example 5, Table 1); type: cell-based, mice; conditions: C: control, only antiviral drug (80 μg/ml); E:T 100:1
Experimental: as §1
Natural Killer (NK) Cells can destrou many viruse. NK cells may be important in limiting early spread of virus, also Natural Killer Cytotoxicity is effective antiviral agent. NK cell cytoxicity was tested by chromium release which assay using ^51 Cr-labelled YAC-1 or EAC cell line as targer cells. […] The effector cell to target cell (E:T) radio is 100:1. After the incubation the tuber were spun, the amount of ^51 Cr-released in 0.1 ml supernatant was counted by r-scintillation counter. Percent cytotoxicity was calculated from the following formula: [formula]

[3] = cited from earlier work
[4] = test system: peritoneal macrophage; test: Phagocytosis of peritoneal macrophage of mice, 51Cr chick red blood cells (Example 10, Table 6); type: cell-based; conditions: C: control, only antiviral drug (80 μg/ml)
Experimental: as §1
Count the number of macrophages in the peritoneal exudate of mice and adjust to 1×10^7 cell/ml with normal saline. Add 0.1 ml of the macrophage suspension. i.e. 1×10^6 cells to each well on the plastic plate for test. Lable the chick red blood cell with ^51 Cr. Suspend the labelled chick red blood cell and adjust to 1.5×10^8/ml, add 0.1 ml, i.e. 1.5×10^7, to each well. Incubate at 37° C. for 30 minutes. Wash thoughly to remove the free chick red blood cells. Count each well in a γ-counter.

[5] = test system: lymphocytes; test: Lymphoblastoid transformation test, 3H-TdR (Example 7, Table 3); type: cell-based, mice; conditions: C: control, only antiviral drug (80 μg/ml)
Experimental: as §1
1. Reagents and conditions for cell culture
a. Culture media--RPMI 1640, madium 199 minimal essential medium (Eagle).
b. 37° C. to maintain the pH of the medium at 7.31.
c. Serum--generally 15-20% fetal bovine serum was incorporated.
d. Gaseous phase 5% CO2 in air;
e. Cell concentration--generally 1-2×10^6 /ml;
f. Stimulants--20 μg/ml for phytoagglutinin containing polysaccharide (PHA-M) or 10 μg/ml for polysaccharide-free purified phytoagglutinin (PHA-P).
2. Measured by liquid scintillation
a. The conditions of cell culture are same as above. ^3 H-TdR was added after 48 hours of incubation at a final concentration of 2 μCi/ml and continue the incubation for 24 hours.
b. Wash the cells twice with cold normal saline and the erythrocytes were lysed by addition of distilled-water and equal volume of 3.6% NaCi was then added. The intact lymphocytes and add 2 ml of 10% trichloroacetic acid to precipitate the protein. Wash twice with normal saline. Add 2 ml of ethanol: ether (1:1) to wash once. 0.2 ml of formic acid was then added for digestion till the precipitate was dissolved.
c. Add 4 ml of scintillation fluid to 0.1 ml of the final sample and count in a liquid scintillation counter.

[6] = test system: bone marrow stem cells (CFU-S); test: Spleen colony assay, bone marrow stem cells (CFU-S) (Example 6, Table 2); type: in vivo, mice; conditions: C: control, only antiviral drug (80 μg/ml)
Experimental: as §1
Effects of SDI on hemopoietic system were investigated.

[7] = test system: white blood cells; test: White blood cells assay (Example 8, Table 4); type: in vivo, mice; conditions: C: control, only antiviral drug (80 μg/ml); 7 days
Experimental: as §1
Action of SDI II and antiviral drug on white blood cells was investigated by means of white blood cells assay. […] Time of treatment is 7 days.

[8] = test system: DNA synthesis; conditions: cited from earlier work

Compound | Rate of formed rosette [1] | % Cytotoxicity (NK cells) [2] | side effects (marrow, blood) ([3]; various degree) | CPM (phagocytosis of peritoneal macrophage) [4] | CPM (lymphoblastoid transformation) [5] | Mean CFU ± SD [6] | White blood cells [7] | side effects (marrow, blood) ([3]; in vivo) | DNA synthesis [8]
Nc1ncnc2c1ncn2[C@H]1CC[C@@H](CO)O1 [DDA, 2',3'-Dideoxyadenoside] | 22.4% | 18.0% | bone-marrow suppression, megaloblastic anemia and recreasing total white blood cells | 489 CPM | 502 CPM | 4.2 | 4200 mL⁻¹ | – | –
O=P1(N(CCCl)CCCl)NCCCO1 (centres unmarked) [CP, Cyclophosphamide] | 20.7% | 20.7% | bone-marrow suppression, megaloblastic anemia and recreasing total white blood cells | 481 CPM | 620 CPM | 4.0 | 5300 mL⁻¹ | – | –
Nc1ccn([C@H]2CC[C@@H](CO)O2)c(=O)n1 [DDC, 2',3'-Dideoxycytidine] | – | – | – | – | – | – | – | bone-marrow suppression, megaloblastic anemia and recreasing total white blood cells | –
Nc1nc2c(ncn2COCCO)c(=O)[nH]1 [ACV, Acyclovir] | – | – | bone-marrow suppression, megaloblastic anemia and recreasing total white blood cells | – | – | – | – | – | –
O=c1cnn([C@@H]2O[C@H](CO)[C@@H](O)[C@H]2O)c(=O)[nH]1 [AZU, 6-Azauridune] | – | – | bone-marrow suppression, megaloblastic anemia and recreasing total white blood cells | – | – | – | – | – | –
Nc1ncn([C@@H]2O[C@H](CO)[C@@H](O)[C@H]2O)c(=O)n1 [AZC] | 19.8% | 11.2% | – | 401 CPM | 441 CPM | 3.1 | 3800 mL⁻¹ | – | –
O=c1[nH]c(=O)n([C@H]2C[C@H](O)[C@@H](CO)O2)cc1I [IDU, Idoxuridine] | – | – | – | – | – | – | – | bone-marrow suppression, megaloblastic anemia and recreasing total white blood cells | –
NC(=O)c1ncn([C@@H]2O[C@H](CO)[C@@H](O)[C@H]2O)n1 [Rib, Ribofuranosyl-Trazole-Carboxamide] | 28.7% | 22.3% | bone-marrow suppression, megaloblastic anemia and recreasing total white blood cells | 540 CPM | 763 CPM | 4.2 | 4900 mL⁻¹ | – | –
Nc1ncn([C@H]2C[C@H](O)[C@@H](CO)O2)c(=O)n1 [AZCdR, 5'-Aza-2'-deoxycytidine] | – | – | bone-marrow suppression, megaloblastic anemia and recreasing total white blood cells | – | – | – | – | – | –
Cc1cn([C@H]2C[C@H](N=[N+]=[N-])[C@@H](CO)O2)c(=O)[nH]c1=O [AZT, 3'-Azido-3'-deoxythymidine] | – | – | bone-marrow suppression and megaloblastic anemia, and decreasing total white blood cells | – | – | – | – | – | blocker of DNA synthesis
N=c1ccn2c(n1)O[C@H]1[C@H](O)[C@@H](CO)O[C@H]12 [C.C., Cyclocytidine] | – | – | bone-marrow suppression, megaloblastic anemia and recreasing total white blood cells | – | – | – | – | – | –
Nc1ccn([C@@H]2O[C@H](CO)[C@@H](O)[C@@H]2O)c(=O)n1 [Ara-C, Cytarabine] | 23.7% | – | bone-marrow suppression, megaloblastic anemia and recreasing total white blood cells | 512 CPM | 654 CPM | 3.8 | 4200 mL⁻¹ | – | –
